According to ChEMBL document CHEMBL1155507, “Synthesis, SAR and evaluation of [1,4']-bipiperidinyl-4-yl-imidazolidin-2-one derivatives as novel CCR5 antagonists” (Bioorg Med Chem Lett, 2010):

What was measured:
Caco-2 = assay: Efflux ratio of permeability from basolateral to apical over apical to basolateral side in human Caco-2 cells after 21 days; format: ADME, cell-based; settings: caco-2, 504 h
[1] = biological target: C-C chemokine receptor type 5 (Homo sapiens, UniProt P51681); assay: Binding affinity at CCR5 receptor by radiolabeled RANTES binding assay
[2] = Intrinsic clearance in human liver microsomes per mg of protein; format: ADME, Microsome
[3] = test system: Human immunodeficiency virus 1; assay: Antiviral activity against HIV1 NL4-3 infected in human JC53-BL cells assessed as luciferase activity after 3 days post infection; format: functional, organism-based; settings: Human immunodeficiency virus 1, NL4-3, JC53BL, 72 h
[4] = Permeability from apical to basolateral side of human Caco-2 cells after 21 days; format: ADME, cell-based; settings: read-out: permeability
Liver microsomes = assay: Intrinsic clearance in rat liver microsomes; format: ADME, Microsome
[5] = Half life in rat at 1 mg/kg, iv; format: ADME, organism-based; parameters: dose 1 mg/kg, route intravenous; settings: in vivo
[6] = (§1) Oral bioavailability in rat at 1 mg/kg; format: ADME, organism-based; settings: in vivo
[7] = (§2) AUC in rat at 1 mg/kg, po; format: ADME, organism-based, Plasma; parameters: dose 1 mg/kg, route oral; settings: plasma
[8] = Clearance in rat at 1 mg/kg, iv; format: ADME, organism-based; parameters: dose 1 mg/kg, route intravenous; settings: in vivo
[9] = Cmax in rat at 1 mg/kg, po; format: ADME, organism-based; parameters: dose 1 mg/kg, route oral; settings: in vivo
[10] = Cmax in cynomolgus monkey at 1 mg/kg, po; format: ADME, organism-based, Macaca fascicularis; parameters: dose 1 mg/kg, route oral; settings: in vivo
[11] = Oral bioavailability in cynomolgus monkey at 1 mg/kg; format: ADME, organism-based, Macaca fascicularis; settings: in vivo
[12] = AUC in cynomolgus monkey at 1 mg/kg, po; format: ADME, organism-based, Macaca fascicularis; parameters: dose 1 mg/kg, route oral; settings: plasma
[13] = Half life in cynomolgus monkey at 1 mg/kg, iv; format: ADME, organism-based, Macaca fascicularis; parameters: dose 1 mg/kg, route intravenous; settings: in vivo
[14] = Intrinsic clearance in cynomolgus monkey liver microsomes; format: ADME, Macaca fascicularis, Microsome
[15] = Clearance in cynomolgus monkey at 1 mg/kg, iv; format: ADME, organism-based, Macaca fascicularis; parameters: dose 1 mg/kg, route intravenous; settings: in vivo
Rattus norvegicus [16] = assay: as §1; format: ADME, organism-based; settings: in vivo
Rattus norvegicus [17] = assay: as §2; format: ADME, organism-based, Plasma; parameters: dose 1 mg/kg, route oral; settings: in vivo
hERG (KCNH2) = hERG (KCNH2) (Homo sapiens, UniProt Q12809); assay: Inhibition of human ERG by patch clamp technique
hERG (KCNH2), sequence (Q12809 whole entry): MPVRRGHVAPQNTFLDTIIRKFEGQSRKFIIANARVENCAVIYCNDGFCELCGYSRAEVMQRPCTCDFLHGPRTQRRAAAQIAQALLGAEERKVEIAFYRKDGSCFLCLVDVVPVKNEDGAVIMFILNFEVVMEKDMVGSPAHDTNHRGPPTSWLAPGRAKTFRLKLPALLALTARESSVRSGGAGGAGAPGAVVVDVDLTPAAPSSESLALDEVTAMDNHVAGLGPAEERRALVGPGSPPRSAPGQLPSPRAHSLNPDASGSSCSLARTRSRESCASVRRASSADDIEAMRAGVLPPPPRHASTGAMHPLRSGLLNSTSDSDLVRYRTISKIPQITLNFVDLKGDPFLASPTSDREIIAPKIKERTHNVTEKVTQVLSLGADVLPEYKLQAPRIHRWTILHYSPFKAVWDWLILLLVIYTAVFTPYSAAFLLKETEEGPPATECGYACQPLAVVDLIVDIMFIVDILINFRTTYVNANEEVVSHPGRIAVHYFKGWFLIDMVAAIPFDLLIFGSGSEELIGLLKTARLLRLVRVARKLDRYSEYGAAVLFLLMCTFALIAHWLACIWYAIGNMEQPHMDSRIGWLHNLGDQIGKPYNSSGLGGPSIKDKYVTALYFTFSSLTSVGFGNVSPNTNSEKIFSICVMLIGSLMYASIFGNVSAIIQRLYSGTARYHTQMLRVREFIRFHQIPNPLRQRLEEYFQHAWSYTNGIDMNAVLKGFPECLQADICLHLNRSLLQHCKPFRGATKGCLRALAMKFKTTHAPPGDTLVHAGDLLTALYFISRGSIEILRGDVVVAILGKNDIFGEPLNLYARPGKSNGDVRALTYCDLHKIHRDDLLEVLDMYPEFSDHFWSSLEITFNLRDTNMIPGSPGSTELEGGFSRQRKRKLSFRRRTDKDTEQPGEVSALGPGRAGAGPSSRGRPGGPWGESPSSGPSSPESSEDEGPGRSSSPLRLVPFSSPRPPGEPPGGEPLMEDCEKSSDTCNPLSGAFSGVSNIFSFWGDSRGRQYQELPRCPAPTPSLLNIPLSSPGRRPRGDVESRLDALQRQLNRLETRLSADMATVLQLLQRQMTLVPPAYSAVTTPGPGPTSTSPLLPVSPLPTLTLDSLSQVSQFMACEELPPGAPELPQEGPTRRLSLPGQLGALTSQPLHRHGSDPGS

C-C chemokine receptor type 5, sequence (P51681 whole entry): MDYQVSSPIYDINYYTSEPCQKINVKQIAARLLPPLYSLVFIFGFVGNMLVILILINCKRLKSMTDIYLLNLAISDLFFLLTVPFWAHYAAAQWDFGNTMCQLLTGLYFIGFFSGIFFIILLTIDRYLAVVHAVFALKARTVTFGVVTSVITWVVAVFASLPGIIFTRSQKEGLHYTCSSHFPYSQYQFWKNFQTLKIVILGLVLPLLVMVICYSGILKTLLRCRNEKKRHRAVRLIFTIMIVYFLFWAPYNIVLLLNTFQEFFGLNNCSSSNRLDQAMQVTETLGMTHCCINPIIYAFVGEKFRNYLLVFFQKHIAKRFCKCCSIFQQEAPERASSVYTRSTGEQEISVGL

Structure (SMILES) | Ratio (Caco-2) | IC50 [1] [nM] | microsomal CLint [2] [µL/min/mg] | IC50 [3] [nM] | Papp A→B [4] [×10⁻⁶ cm/s] | further results
Cc1cc(C#N)nc(C)c1C(=O)N1CCC(C)(N2CCC(N3C(=O)N(C)C[C@H]3c3ccccc3)CC2)CC1 | 25 | 24 | 44 | 22 | 0.6 | –
CNC(=O)N1CCC(CN2C[C@@H](c3ccccc3)N(C3CCN(C4(C)CCN(C(=O)c5c(C)cc(C#N)nc5C)CC4)CC3)C2=O)CC1 | 10 | 26 | 53 | 25 | 0.7 | –
Cc1ncnc(C)c1C(=O)N1CCC(C)(N2CCC(N3C(=O)N(C4CCOCC4)C[C@H]3c3ccccc3)CC2)CC1 | 28 | – | 8 | > 625 | 0.6 | –
COC(=O)N1CCC(CN2C[C@@H](c3ccccc3)N(C3CCN(C4(C)CCN(C(=O)c5c(C)ncnc5C)CC4)CC3)C2=O)CC1 | 56 | – | 155 | 26 | 0.3 | –
Cc1ncnc(C)c1C(=O)N1CCC(C)(N2CCC(N3C(=O)N(CC4CCN(S(C)(=O)=O)CC4)C[C@H]3c3ccccc3)CC2)CC1 | 38 | 34 | 224 | 7 | 0.2 | –
CNC(=O)N1CCC(CN2C[C@@H](c3ccccc3)N(C3CCN(C4(C)CCN(C(=O)c5c(C)ncnc5C)CC4)CC3)C2=O)CC1 | 13 | 32 | 13 | 99 | 0.1 | –
CO[C@H]1CC[C@H](CN2C[C@@H](c3ccccc3)N(C3CCN(C4(C)CCN(C(=O)c5c(C)ncnc5C)CC4)CC3)C2=O)CC1 | 13 | 62 | 69 | 8 | 1.4 | –
CCO[C@H]1CC[C@H](CN2C[C@@H](c3ccccc3)N(C3CCN(C4(C)CCN(C(=O)c5c(C)ncnc5C)CC4)CC3)C2=O)CC1 | 4 | 6 | 47 | 3 | 3 | CL (Liver microsomes): 89 µL/min; half-life [5]: 48 min; bioavailability [6]: 10%; AUC [7]: 49 ng·h/mL; clearance [8]: 65 mL/min/kg; Cmax [9]: 21 ng/mL
Cc1ncnc(C)c1C(=O)N1CCC(C)(N2CCC(N3C(=O)N(C[C@H]4CC[C@H](O)CC4)C[C@H]3c3ccccc3)CC2)CC1 | 61 | 20 | 12 | 8 | 0.2 | –
Cc1cc(C#N)nc(C)c1C(=O)N1CCC(C)(N2CCC(N3C(=O)N(CC4CCOCC4)C[C@H]3c3ccccc3)CC2)CC1 | 20 | 12 | 57 | 2 | 1 | –
Cc1ncnc(C)c1C(=O)N1CCC(C)(N2CCC(N3C(=O)N(CCC4CCOCC4)C[C@H]3c3ccccc3)CC2)CC1 | 24 | 8 | 96 | 25 | 0.8 | –
Cc1ncnc(C)c1C(=O)N1CCC(C)(N2CCC(N3C(=O)N(CC4CCOCC4)C[C@H]3c3ccccc3)CC2)CC1 | 29 | 20 | 16 | 32 | 0.5 | Cmax [10]: 16 ng/mL; bioavailability [11]: 14%; AUC [12]: 55 ng·h/mL; half-life [13]: 114 min; microsomal CLint [14]: 65 µL/min/mg; clearance [15]: 39 mL/min/kg
Cc1ncnc(C)c1C(=O)N1CCC(C)(N2CCC(N3C(=O)N(CC4CCOCC4)C[C@@H]3c3ccccc3)CC2)CC1 | – | > 500 | – | > 650 | – | –
Cc1cc(C#N)nc(C)c1C(=O)N1CCC(C)(N2CCC(N3C(=O)N(C4CCOCC4)C[C@H]3c3ccccc3)CC2)CC1 | 12 | 21 | 15 | 7 | 1 | CL (Liver microsomes): 55 µL/min; half-life [5]: 342 min; F (Rattus norvegicus [16]): 23%; AUC (Rattus norvegicus [17]): 85 ng·h/mL; Cmax [9]: 43 ng/mL
Cc1cc(C#N)nc(C)c1C(=O)N1CCC(C)(N2CCC(N3C(=O)N(C[C@H]4CC[C@H](O)CC4)C[C@H]3c3ccccc3)CC2)CC1 | 47 | 33 | 34 | 3 | 0.4 | –
Cc1cc(C#N)nc(C)c1C(=O)N1CCC(C)(N2CCC(N3C(=O)N(CC4CCOCC4)C[C@@H]3c3ccccn3)CC2)CC1 | 77 | 12 | 18 | 22 | 0.1 | CL (Liver microsomes): 87 µL/min; half-life [5]: 60 min; bioavailability [6]: 19%; AUC [7]: 187 ng·h/mL; clearance [8]: 29 mL/min/kg; Cmax [9]: 38 ng/mL
CCO[C@H]1CC[C@H](CN2C[C@H](c3ccccn3)N(C3CCN(C4(C)CCN(C(=O)c5c(C)cc(C#N)nc5C)CC4)CC3)C2=O)CC1 | 30 | 25 | 40 | 9 | 0.5 | –
CCCCC1CN(C2CCOCC2)C(=O)N1C1CCN(C2(C)CCN(C(=O)c3c(C)ncnc3C)CC2)CC1 (racemic) | 52 | 84 | 9 | > 625 | 0.4 | –
CCCCC1CN(CC2CCOCC2)C(=O)N1C1CCN(C2(C)CCN(C(=O)c3c(C)ncnc3C)CC2)CC1 (racemic) | 40 | 43 | 36 | 335 | 0.4 | –
Cc1cc(C#N)nc(C)c1C(=O)N1CCC(C)(N2CCC(N3C(=O)N(C4CCOCC4)CC3c3ccccc3)CC2)CC1 (racemic) | – | – | – | – | – | Cmax [10]: 133 ng/mL; bioavailability [11]: 42%; AUC [12]: 418 ng·h/mL; IC20 (hERG (KCNH2)): 3.5 µM; half-life [13]: 114 min; microsomal CLint [14]: 33 µL/min/mg; clearance [15]: 17 mL/min/kg
Cc1ncnc(C)c1C(=O)N1CCC(C)(N2CCC(N3C(=O)N(CC4CCOCC4)CC3c3ccccc3)CC2)CC1 (racemic) | 33 | 27 | 31 | 47 | 0.4 | CL (Liver microsomes): 14 µL/min; IC20 (hERG (KCNH2)): 22 µM; half-life [5]: 90 min; bioavailability [6]: 27%; AUC [7]: 189 ng·h/mL; clearance [8]: 44 mL/min/kg; Cmax [9]: 56 ng/mL
CCCCC1CN(C2CCOCC2)C(=O)N1C1CCN(C2(C)CCN(C(=O)c3c(C)cc(C#N)nc3C)CC2)CC1 (racemic) | 14 | 65 | 20 | 41 | 1 | –
